Assay: Solubility of CP and CP-A peptides
Type: physicochemical
From the text: A variety of solvents and carriers can be tested to improve their solubility. Solvents and/or carriers that improve solubility of CP and CP-A include, but are not limited to, ethanol, dimethylsulphoxide (DMSO), dimethyl formamide (DMF), and trifluoracetic acid (TFA). When using DMSO as a solvent, the final concentration used in the cell function experiments may range from 0.063%-0.250%. Stock solutions of CP and CP-A can be prepared in DMSO and used at a 1:2000, 1:1000, or 1:400 dilution. In one embodiment, drug delivery systems (i.e., for example, lipid vesicles) can be used to increase solubility and bioavailability of CP and CP-A.

Row | solubility in aqueous solutions | Substance
1 | insoluble in aqueous solutions | H-GFLSKSLVF-OH [CP, NH2-Gly-Phe-Leu-Ser-Lys-Ser-Leu-Val-Phe-OH]
2 | insoluble in aqueous solutions | H-GFLSASLVF-OH [CP-A, NH2-Gly-Phe-Leu-Ser-Ala-Ser-Leu-Val-Phe-OH]

From patent US9981004B2, “Inhibition of TREM receptor signaling with peptide variants” (SignaBlok, Inc., priority 2009, dated 2018)
